Format in all cases: cell-based
Experiment [1] has as its target IKZF2 (Homo sapiens, UniProt Q96SW2+Q9UKS7). In words: Prolabel quantification of IKZF2 protein levels in 293GT cells.
For experiment [2], the target named is IKZF1 (Homo sapiens, UniProt Q13422+Q96SW2). As to the kind of experiment: Prolabel quantification of IKZF1 protein levels in 293GT cells. The settings on record: Prolabel assay, read-out: IKZF1 EC50.
Experiment [3] deals with GSPT1 (Homo sapiens, UniProt P15170+Q96SW2). In words: Prolabel quantification of GSPT1 protein levels in 293GT cells. The note with it: Prolabel assay, read-out: GSPT1 EC50. The protocol: The Prolabel system from DiscoverX was used to develop high-throughput and quantitative assays to measure changes in IKZF1, IKZF2 and GSPT1 protein levels in response to compounds. The prolabel tag was derived from the alpha fragment of beta galactosidase and has the following protein sequence: mssnslavvlqrrdwenpgvtqlnrlaahppfaswrnseeartdrpsqqlrslnge. The complementary fragment of beta-galactosidase (from DiscoverX), is added to the prolabel tag to form an active beta galactosidase enzyme whose activity can be precisely measured. In this way, the levels of a fusion protein with the prolabel tag can be quantified in cell lysates.
Lentiviral vectors, based on the Invitrogen pLenti6.2/V5 DEST backbone, were constructed that placed the prolabel tag upstream of IKZF1, IKZF2 or GSPT1 and expressed the fusion protein from a CMV promoter.
To ensure moderate and consistent expression of the prolabel fusion proteins across all cells in the population, stable cell lines were constructed from cells expressing a single copy of the construct. Lentivirus packaged with the constructs was made using the Virapower kit from Invitrogen.
The levels of prolabel tagged fusion proteins in compound treated cell lines were measured as follows:
Day 1, Cells were diluted to 1.0×10^6 cells/ml in normal growth medium. 17.5 μL of cells were plated in each well of a solid white 384 well plate. Plates were incubated overnight in a 37° C. tissue culture incubator.
Day 2, Serial dilutions of compounds were made in 384 well plates from 10 mM stocks. 15 μL of DMSO was added to each well of a 384 well plate. In the first column 15 μL of stock compound was added. The solution was mixed and 15 μL was transferred to the next column. This was repeated until 20 two-fold dilutions were prepared. 2.5 μL of diluted compounds were transferred into 60 μL of cell culture medium in another 384 well plate, and mixed well. 2.5 μL of this mixture was added to the plated cells. The final DMSO concentration was 0.5% and the highest concentration of compound was 50 μM. Plates were incubated overnight (e.g., about 14 h, 18 h, or 24 h) in a 37° C. tissue culture incubator.
Day 3, Plates were removed from the incubator and allowed to equilibrate at rt for 30 minutes. Prolabel substrate (DiscoverX PathHunter Prolabel Detection Kit, User manual: 93-0180) was added as described by the manufacturers protocols. Plates were incubated at rt for three hours and luminescence was read using an Envision reader (Perkin Elmer) Data was analyzed and visualized using the Spotfire software package.

[4] abbreviates: 24 h, 10 μM, 24 h, 293GT cells; read-out: IKZF2 % protein reduction at 10 μM, 24 h.
Setting [5] is: Prolabel assay, 293GT cells; read-out: IKZF2 EC50.

Read-outs that look alike come from different tables or passages of the source. A value given as a limit tells only on which side of the number the result lay.

IKZF2, sequence (Q9UKS7 whole entry): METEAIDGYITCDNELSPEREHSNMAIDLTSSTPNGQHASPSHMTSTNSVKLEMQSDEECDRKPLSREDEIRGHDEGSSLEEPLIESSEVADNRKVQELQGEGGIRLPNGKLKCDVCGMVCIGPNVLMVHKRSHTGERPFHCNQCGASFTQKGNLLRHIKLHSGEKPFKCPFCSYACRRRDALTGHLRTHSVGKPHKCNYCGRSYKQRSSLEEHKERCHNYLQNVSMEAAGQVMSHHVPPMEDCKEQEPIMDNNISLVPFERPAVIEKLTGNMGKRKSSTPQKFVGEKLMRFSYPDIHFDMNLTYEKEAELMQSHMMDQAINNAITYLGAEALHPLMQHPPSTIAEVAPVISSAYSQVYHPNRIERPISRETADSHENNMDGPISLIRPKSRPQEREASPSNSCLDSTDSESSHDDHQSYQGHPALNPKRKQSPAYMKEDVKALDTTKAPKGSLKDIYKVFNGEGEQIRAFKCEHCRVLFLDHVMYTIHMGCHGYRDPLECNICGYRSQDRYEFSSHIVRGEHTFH
IKZF2, sequence (Q96SW2 whole entry): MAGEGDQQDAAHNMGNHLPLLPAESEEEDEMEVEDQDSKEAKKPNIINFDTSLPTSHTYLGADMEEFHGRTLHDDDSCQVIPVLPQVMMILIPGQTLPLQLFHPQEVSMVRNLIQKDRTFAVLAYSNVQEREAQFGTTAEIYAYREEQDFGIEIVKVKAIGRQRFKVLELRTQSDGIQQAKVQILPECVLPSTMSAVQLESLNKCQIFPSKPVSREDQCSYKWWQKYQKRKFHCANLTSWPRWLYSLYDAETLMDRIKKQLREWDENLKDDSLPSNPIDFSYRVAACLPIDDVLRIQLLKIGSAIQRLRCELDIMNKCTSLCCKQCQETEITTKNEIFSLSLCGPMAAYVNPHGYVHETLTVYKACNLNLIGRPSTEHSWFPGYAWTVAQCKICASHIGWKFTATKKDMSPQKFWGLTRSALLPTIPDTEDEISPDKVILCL
IKZF2, sequence (Q16531 whole entry partner): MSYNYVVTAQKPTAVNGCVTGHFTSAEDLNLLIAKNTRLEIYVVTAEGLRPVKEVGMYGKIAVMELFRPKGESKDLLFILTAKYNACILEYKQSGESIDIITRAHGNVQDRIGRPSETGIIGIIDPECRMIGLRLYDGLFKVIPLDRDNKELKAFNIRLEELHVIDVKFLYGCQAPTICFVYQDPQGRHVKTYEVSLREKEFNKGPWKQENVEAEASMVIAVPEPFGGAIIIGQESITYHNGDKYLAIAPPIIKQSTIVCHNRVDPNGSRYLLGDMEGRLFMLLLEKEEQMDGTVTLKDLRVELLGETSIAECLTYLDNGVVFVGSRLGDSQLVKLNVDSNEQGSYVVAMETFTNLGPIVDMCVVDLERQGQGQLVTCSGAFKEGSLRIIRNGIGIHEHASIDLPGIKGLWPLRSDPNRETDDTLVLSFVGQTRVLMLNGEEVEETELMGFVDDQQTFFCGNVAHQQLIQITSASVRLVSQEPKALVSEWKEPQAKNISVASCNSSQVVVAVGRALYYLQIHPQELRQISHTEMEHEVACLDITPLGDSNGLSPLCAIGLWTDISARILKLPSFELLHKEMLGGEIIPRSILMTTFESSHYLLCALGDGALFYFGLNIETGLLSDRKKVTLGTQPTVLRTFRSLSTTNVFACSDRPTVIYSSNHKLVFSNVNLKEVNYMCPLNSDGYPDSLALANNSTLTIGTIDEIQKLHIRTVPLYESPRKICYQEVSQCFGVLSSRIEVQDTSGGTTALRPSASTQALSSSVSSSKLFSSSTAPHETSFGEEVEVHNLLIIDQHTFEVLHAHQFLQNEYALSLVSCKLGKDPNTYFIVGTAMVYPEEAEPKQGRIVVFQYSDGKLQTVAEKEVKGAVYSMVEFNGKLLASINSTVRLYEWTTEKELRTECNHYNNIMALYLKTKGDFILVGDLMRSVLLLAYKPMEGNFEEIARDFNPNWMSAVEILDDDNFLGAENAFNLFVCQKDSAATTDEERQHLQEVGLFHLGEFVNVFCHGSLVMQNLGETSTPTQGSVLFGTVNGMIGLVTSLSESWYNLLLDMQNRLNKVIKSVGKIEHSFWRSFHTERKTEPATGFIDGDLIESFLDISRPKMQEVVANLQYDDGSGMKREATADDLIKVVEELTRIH
IKZF1, sequence (Q13422 whole entry, the tested form may be a part): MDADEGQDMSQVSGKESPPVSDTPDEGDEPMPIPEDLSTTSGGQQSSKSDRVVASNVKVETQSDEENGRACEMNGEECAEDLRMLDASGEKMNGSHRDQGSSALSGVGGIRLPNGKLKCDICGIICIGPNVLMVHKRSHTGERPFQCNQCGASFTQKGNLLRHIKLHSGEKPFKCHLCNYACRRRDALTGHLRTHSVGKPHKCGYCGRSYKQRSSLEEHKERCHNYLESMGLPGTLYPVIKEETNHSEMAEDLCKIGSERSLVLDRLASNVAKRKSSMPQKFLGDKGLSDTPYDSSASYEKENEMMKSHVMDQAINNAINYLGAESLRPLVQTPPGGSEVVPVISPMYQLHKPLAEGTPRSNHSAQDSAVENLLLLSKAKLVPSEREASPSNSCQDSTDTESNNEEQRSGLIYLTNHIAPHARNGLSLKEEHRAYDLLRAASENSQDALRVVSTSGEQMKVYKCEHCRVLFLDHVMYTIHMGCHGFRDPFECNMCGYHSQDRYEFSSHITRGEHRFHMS
IKZF1, sequence (Q96SW2 whole entry, the tested form may be a part): as the sequence (Q96SW2 whole entry) above
IKZF1, sequence (Q16531 whole entry partner, the tested form may be a part): as the sequence (Q16531 whole entry partner) above
GSPT1, sequence (P15170 whole entry, the tested form may be a part): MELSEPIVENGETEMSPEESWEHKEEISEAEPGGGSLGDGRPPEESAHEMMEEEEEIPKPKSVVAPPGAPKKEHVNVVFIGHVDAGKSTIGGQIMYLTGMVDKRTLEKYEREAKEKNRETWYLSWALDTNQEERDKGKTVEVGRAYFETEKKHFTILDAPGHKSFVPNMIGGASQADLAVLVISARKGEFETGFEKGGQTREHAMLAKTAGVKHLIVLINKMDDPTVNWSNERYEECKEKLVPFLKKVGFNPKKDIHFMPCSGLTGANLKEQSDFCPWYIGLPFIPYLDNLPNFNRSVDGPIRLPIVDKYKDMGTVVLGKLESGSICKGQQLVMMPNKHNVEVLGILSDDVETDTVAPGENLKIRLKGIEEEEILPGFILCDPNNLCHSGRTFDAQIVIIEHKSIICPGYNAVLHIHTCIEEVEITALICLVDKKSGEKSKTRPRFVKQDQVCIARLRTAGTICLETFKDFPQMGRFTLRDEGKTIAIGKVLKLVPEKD
GSPT1, sequence (Q96SW2 whole entry, the tested form may be a part): as the sequence (Q96SW2 whole entry) above
GSPT1, sequence (Q16531 whole entry partner, the tested form may be a part): as the sequence (Q16531 whole entry partner) above

As for `Cn1nc(CN2CCC(c3ccc4c(c3)CN(C3CCC(=O)NC3=O)C4=O)CC2)c2ccccc21` (centres unmarked) [Compound I-203, 3-(5-(1-((1-methyl-1H-indazol-3-yl)methyl)piperidin-4-yl)-1-oxoisoindolin-2-yl)piperidine-2,6-dione], in experiment [1] (setting [4]), the inhibition at 10 µM stood at 50%. In addition, the DC50 in experiment [1] (setting [5]) is 0.016 µM; in experiment [2] it was above 30 µM; in experiment [3] it was above 30 µM.
For `O=C1CCC(N2Cc3cc(C4CCN(Cc5ccc(Cl)cc5Cl)CC4)ccc3C2=O)C(=O)N1` (centres unmarked) [Compound I-113, 3-(5-(1-(2,4-dichlorobenzyl)piperidin-4-yl)-1-oxoisoindolin-2-yl)piperidine-2,6-dione], in experiment [1] (setting [4]), the inhibition at 10 µM was determined as 50%. The DC50 in experiment [1] (setting [5]) is 0.015 µM; in experiment [2], above 30 µM; in experiment [3], above 30 µM.
For the molecule `O=C1CCC(N2Cc3cc(C4CCN(Cc5ccc6scnc6c5)CC4)ccc3C2=O)C(=O)N1` (centres unmarked) [Compound I-130, 3-(5-(1-(benzo[d]thiazol-5-ylmethyl)piperidin-4-yl)-1-oxoisoindolin-2-yl)piperidine-2,6-dione], the inhibition at 10 µM in experiment [1] (setting [4]) is 80%. Also, the DC50 in experiment [1] (setting [5]) was 0.008 µM; in experiment [2], above 30 µM; in experiment [3], above 30 µM.
Turning to `COc1ccc(CN2CCC(c3ccc4c(c3)CN(C3CCC(=O)NC3=O)C4=O)CC2)cc1` (centres unmarked) [Compound I-39, 3-(5-(1-(4-methoxybenzyl)piperidin-4-yl)-1-oxoisoindolin-2-yl)piperidine-2,6-dione], in experiment [1] (10 μM, 24 h, 293GT cells; read-out: IKZF2 % protein reduction at 10 μM, 24 h), the inhibition at 10 µM amounted to 45%. In addition, the DC50 in experiment [2] and in experiment [3] was above 50 µM each time.
Turning to `O=C1CCC(N2Cc3cc(C4CCN(Cc5ccc(F)c(F)c5)CC4)ccc3C2=O)C(=O)N1` (centres unmarked) [Compound I-64, 3-(5-(1-(3,4-difluorobenzyl)piperidin-4-yl)-1-oxoisoindolin-2-yl)piperidine-2,6-dione], the inhibition at 10 µM in experiment [1] (setting [4]) was 75%. Besides, the DC50 in experiment [1] (setting [5]) was 0.025 µM; in experiment [2], above 30 µM; in experiment [3], above 30 µM.
Turning to `O=C1CCC(N2Cc3cc(C4CCN(Cc5ccnc6ccccc56)CC4)ccc3C2=O)C(=O)N1` (centres unmarked) [Compound I-214, 3-(1-oxo-5-(1-(quinolin-4-ylmethyl)piperidin-4-yl)isoindolin-2-yl)piperidine-2,6-dione], the inhibition at 10 µM in experiment [1] (setting [4]) was 70%. In addition, the DC50 in experiment [1] (setting [5]) was 0.019 µM; in experiment [2], above 50 µM; in experiment [3] it was above 30 µM.
Taken in the same sequence, the figures for `CC(C)(C)c1nc(CN2CCC(c3ccc4c(c3)CN(C3CCC(=O)NC3=O)C4=O)CC2)cs1` (centres unmarked) [Compound I-143, 3-(5-(1-((2-(tert-butyl)thiazol-4-yl)methyl)piperidin-4-yl)-1-oxoisoindolin-2-yl)piperidine-2,6-dione] were 60%, 0.026 µM, above 30 µM and above 30 µM.
Regarding `O=C1CCC(N2Cc3cc(C4CCN(Cc5ccc(C(F)F)cc5)CC4)ccc3C2=O)C(=O)N1` (centres unmarked) [Compound I-70, 3-(5-(1-(4-(difluoromethyl)benzyl)piperidin-4-yl)-1-oxoisoindolin-2-yl)piperidine-2,6-dione], in experiment [1] (setting [4]), the inhibition at 10 µM came to 75%. The values for the DC50 in experiment [1] (setting [5]), in experiment [2] and in experiment [3] were 0.012 µM, above 30 µM and above 30 µM, respectively.
For `O=C1CCC(N2Cc3cc(C4CCN(Cc5cc6n(n5)CCCC6)CC4)ccc3C2=O)C(=O)N1` (centres unmarked) [Compound I-135, 3-(1-oxo-5-(1-((4,5,6,7-tetrahydropyrazolo[1,5-a]pyridin-2-yl)methyl)piperidin-4-yl)isoindolin-2-yl)piperidine-2,6-dione], the inhibition at 10 µM in experiment [1] (setting [4]) stood at 60%. The DC50 in experiment [1] (setting [5]) was 0.057 µM; in experiment [2], above 30 µM; in experiment [3], above 30 µM.
Regarding `N#CCc1ccc(CN2CCC(c3ccc4c(c3)CN(C3CCC(=O)NC3=O)C4=O)CC2)cc1` (centres unmarked) [Compound I-206, 2-(4-((4-(2-(2,6-dioxopiperidin-3-yl)-1-oxoisoindolin-5-yl)piperidin-1-yl)methyl)phenyl)acetonitrile], the inhibition at 10 µM in experiment [1] (setting [4]) was 80%. The DC50 is 0.009 µM in experiment [1] (setting [5]), above 30 µM in experiment [2] and above 30 µM in experiment [3].
Consider `O=C1CCC(N2Cc3cc(C4CCN(Cc5cccc6c5CCCC6)CC4)ccc3C2=O)C(=O)N1` (centres unmarked) [Compound I-164, 3-(1-oxo-5-(1-((5,6,7,8-tetrahydronaphthalen-1-yl)methyl)piperidin-4-yl)isoindolin-2-yl)piperidine-2,6-dione], for which the inhibition at 10 µM in experiment [1] (setting [4]) was 50%. In addition, the values for the DC50 in experiment [1] (setting [5]), in experiment [2] and in experiment [3] were 0.018 µM, above 50 µM and above 50 µM, respectively.
Turning to `CC(C)Oc1cccc(CN2CCC(c3ccc4c(c3)CN(C3CCC(=O)NC3=O)C4=O)CC2)c1` (centres unmarked) [Compound I-108, 3-(5-(1-(3-isopropoxybenzyl)piperidin-4-yl)-1-oxoisoindolin-2-yl)piperidine-2,6-dione], the inhibition at 10 µM in experiment [1] (setting [4]) amounted to 65%. In addition, the DC50 was 0.023 µM in experiment [1] (setting [5]), above 30 µM in experiment [2] and above 30 µM in experiment [3].
As for `CN(C)S(=O)(=O)c1cccc(CN2CCC(c3ccc4c(c3)CN(C3CCC(=O)NC3=O)C4=O)CC2)c1` (centres unmarked) [Compound I-216, 3-((4-(2-(2,6-dioxopiperidin-3-yl)-1-oxoisoindolin-5-yl)piperidin-1-yl)methyl)-N,N-dimethylbenzenesulfonamide], in experiment [1] (setting [4]), the inhibition at 10 µM was 80%. Further, the DC50 in experiment [1] (setting [5]) is 0.01 µM; in experiment [2], 0.22 µM; in experiment [3] it was above 30 µM.
Take `CN1CCN(Cc2cc(CN3CCC(c4ccc5c(c4)CN(C4CCC(=O)NC4=O)C5=O)CC3)ccc2O)CC1` (centres unmarked) [Compound I-205, 3-(5-(1-(4-hydroxy-3-((4-methylpiperazin-1-yl)methyl)benzyl)piperidin-4-yl)-1-oxoisoindolin-2-yl)piperidine-2,6-dione]: the inhibition at 10 µM in experiment [1] (setting [4]) was found to be 70%. Also, the figures for the DC50 in experiment [1] (setting [5]), in experiment [2] and in experiment [3] were 0.05 µM, above 30 µM and above 30 µM, respectively.
Take `CC(=O)Nc1ccc(CN2CCC(c3ccc4c(c3)CN(C3CCC(=O)NC3=O)C4=O)CC2)cc1` (centres unmarked) [Compound I-86, N-(4-((4-(2-(2,6-dioxopiperidin-3-yl)-1-oxoisoindolin-5-yl)piperidin-1-yl)methyl)phenyl)acetamide]: in experiment [1] (setting [4]), the inhibition at 10 µM was determined as 75%. For the same molecule, the DC50 in experiment [1] (setting [5]) was 0.029 µM; in experiment [2], above 30 µM; in experiment [3], above 30 µM.
Turning to `O=C1CCC(N2Cc3cc(C4CCN(Cc5ccc(F)cc5)CC4)ccc3C2=O)C(=O)N1` (centres unmarked) [Compound I-112, 3-(5-(1-(4-fluorobenzyl)piperidin-4-yl)-1-oxoisoindolin-2-yl)piperidine-2,6-dione], the inhibition at 10 µM in experiment [1] (setting [4]) is 63%. In addition, the DC50 in experiment [1] (setting [5]) was 0.007 µM; in experiment [2] it was above 50 µM; in experiment [3], above 50 µM.
As to `O=C1CCC(N2Cc3cc(C4CCCNCC4)ccc3C2=O)C(=O)N1` (single isomer, unassigned) [Compound I-167, 3-(5-(azepan-4-yl)-1-oxoisoindolin-2-yl)piperidine-2,6-dione], in experiment [1] (setting [4]), the inhibition at 10 µM came out at 25%. Also, the DC50 in experiment [2] and in experiment [3] was above 50 µM each time.
On to `O=C1CCC(N2Cc3cc([C@@H]4CCCNCC4)ccc3C2=O)C(=O)N1` (single isomer, unassigned) [Compound I-166, 3-(5-(azepan-4-yl)-1-oxoisoindolin-2-yl)piperidine-2,6-dione], for which the inhibition at 10 µM in experiment [1] (setting [4]) worked out at 25%. In addition, the DC50 in experiment [2] and in experiment [3] was above 50 µM each time.
With `O=C1CCC(N2Cc3cc(C4CCN(Cc5cccc6[nH]ncc56)CC4)ccc3C2=O)C(=O)N1` (centres unmarked) [Compound I-43, 3-(5-(1-((1H-indazol-4-yl)methyl)piperidin-4-yl)-1-oxoisoindolin-2-yl)piperidine-2,6-dione], the inhibition at 10 µM in experiment [1] (setting [4]) stood at 80%. For the same molecule, the “IKZF2 protein levels as compared to the control (DMSO)” value in experiment [1] (Prolabel assay in HEK293GT cells, bar graph) was “decreased”. The results for the DC50 in experiment [1] (setting [5]), in experiment [2] and in experiment [3] were 0.012 µM, above 30 µM and above 30 µM, respectively.

These data come from patent US11053218B2, “3-(1-oxoisoindolin-2-yl)piperidine-2,6-dione derivatives and uses thereof” (Novartis AG, priority 2017, dated 2021).
